From patent US20250353848A1, “HETEROCYCLIC PAD4 INHIBITORS” (Celgene Corporation, priority 2022, published 2025)

Assays:
hPAD4 enzyme [1] = molecular target: T1, hPAD4 enzyme (Homo sapiens, UniProt Q9UM07); assay: RFMS Assay 2 (rapid-fire mass spectrum PAD4 inhibition assay, peptide substrate); assay type: biochemical; conditions: 35 nM recombinant human PAD4, substrate TSTGGRQGSHH, room temperature for 30 minutes; read-out: human PAD4 (hPAD4) IC50, RFMS Assay 2
Description: Stock compounds were dissolved and stored in 100% DMSO. Compound solutions were prepared via serial dilution at 3-fold intervals in DMSO with top compound concentration at […] in each assay. 0.25 μl of compound solution was transferred from the compound plate to the assay plate by using an acoustic dispenser. Final assay conditions: • Total reaction volume: 25 μl • Assay buffer: […] pH 7.4, 200 mM NaCl, 2 mM CaCl2, 5 mM DTT • 35 nM recombinant human PAD4 • 500 µM TSTGGRQGSHH (SEQ ID NO: 1) • 1.2% DMSO • Stop solution: 10% formic acid
Reaction mixtures were incubated at room temperature for 30 minutes. 10 μl each of the reaction mixtures was then mixed with 40 μl of 10% formic acid in a microtiter plate. The plate was frozen at −80° C. before shipping out on dry ice for RapidFire mass spectroscopy analysis.
Thawed samples were loaded onto the Rapid Fire 300 system (Agilent) wherein they were first sipped for 250 ms and then loaded onto a Agilent “C” (C18) cartridge using a mobile phase of water containing 0.09% formic acid/0.01% trifluoroacetic acid for 3000 ms desalting flowing at a rate of 1.5 ml/min. Once the samples were loaded and washed, a mobile phase of acetonitrile containing 0.09% formic acid/0.01% trifluoroacetic acid was used to elute the samples directly onto a Sciex API4000 triple quadrupole mass spectrometer for 3000 ms at a flow rate of 1.25 ml/min.
MRM transitions for substrate and product were monitored in positive ESI mode at m/z=562.3/969.7 and m/z=562.8/541.3 respectively. The dwell time for each transition was set at 100 ms, and the ESI voltage was used at 5500 with a source temperature of 650° C. Extracted ion peaks for each transition were integrated using the Rapid Fire Integrator software.

hPAD4 enzyme [2] = molecular target: T1, hPAD4 enzyme; assay: RFMS Assay 1 (rapid-fire mass spectrum PAD4 inhibition assay, BAEE substrate); assay type: biochemical; conditions: 5 nM hPAD4 enzyme, 250 μM BAEE, 30 mins compound and enzyme preincubation at 37° C., 90 min enzyme/substrate reaction
Description: Compounds were solubilized in 100% DMSO to achieve a 10 mM compound concentration. Compound stock solutions were stored at RT. A series of dilutions were prepared in DMSO and mixed 8 times with 20 μL mixing volume. Final top concentration of compound in the assay is 50 μM. Final assay conditions were as follows: • Reaction volume: 26 μl • Assay buffer: 25 mM hepes, pH 7.5, 5 mM NaCl, 1 mM DTT, 0.2 mg/ml BSA, 0.01% CHAPS, 50 μM Calcium, and 5 μM TPEN • Final concentrations: 5 nM hPAD4 enzyme, 250 μM BAEE, and 0.5% DMSO • Total incubation time: 30 mins compound and enzyme preincubation at 37° C., 90 min enzyme/substrate reaction, 30 min reaction with phenyl glyoxal at 37° C. • Stop solution: 40 μl 5% TCA in ACN
0.13 μL of compound solution was added to 13 μL of 10 nM PAD4 in assay buffer. After 30 min 13 μl of 500 μM of BAEE was added in 25 mM hepes, pH 7.5, 5 mM NaCl, 1 mM DTT, 0.2 mg/ml BSA, 0.01% CHAPS, 50 µM Calcium, […] was added and the reaction incubated for 90 min at 37° C. The enzymatic reaction was quenched by addition of 15 μl of 6.1N TCA, 100% Final Concentration is 20%, 35 μl of 8.5 mM phenyl glyoxal (final concentration 4 mM) is then added and the reaction is incubated for 30 min at 37° C.
After 30 minutes the plates are spun down to remove all precipitate. The enzyme reaction was quenched with an equal volume of methanol containing internal standard (modified citrulline). Samples were loaded onto the Rapid Fire RF300 system (Agilent) wherein they were first sipped for 1000 ms and then directly loaded to a C18 separations cartridge using a mixture of acetonitrile containing 0.01% formic acid for 3000 ms desalting. The flow rate of the mobile phase was 1.5 ml/min. Once the samples were eluted from the cartridge, a mobile phase of acetonitrile containing 0.01% formic acid was used to move the samples into the mass spectrometer for 4000 ms at a flow rate of 1.25 ml/min/Sciex AP15500 triple quadrupole mass spectrometer (Applied Biosystems) equipped with ESI was used to analyze the peptidyl citrulline and internal standard ions.
MRM transition of product and internal standard were monitored at m/z 424.5 to 350.4 and m/z 293 to 247 respectively. The dwell time for each transition was set at 200 ms, and the ESI voltage was used at 5500 with a source temperature of 400° C. Extracted ion peaks for each transition were integrated using the Rapid Fire Integrator software. Peak area of analyte was normalized with internal standard.).

T1 sequence (Q9UM07 whole entry): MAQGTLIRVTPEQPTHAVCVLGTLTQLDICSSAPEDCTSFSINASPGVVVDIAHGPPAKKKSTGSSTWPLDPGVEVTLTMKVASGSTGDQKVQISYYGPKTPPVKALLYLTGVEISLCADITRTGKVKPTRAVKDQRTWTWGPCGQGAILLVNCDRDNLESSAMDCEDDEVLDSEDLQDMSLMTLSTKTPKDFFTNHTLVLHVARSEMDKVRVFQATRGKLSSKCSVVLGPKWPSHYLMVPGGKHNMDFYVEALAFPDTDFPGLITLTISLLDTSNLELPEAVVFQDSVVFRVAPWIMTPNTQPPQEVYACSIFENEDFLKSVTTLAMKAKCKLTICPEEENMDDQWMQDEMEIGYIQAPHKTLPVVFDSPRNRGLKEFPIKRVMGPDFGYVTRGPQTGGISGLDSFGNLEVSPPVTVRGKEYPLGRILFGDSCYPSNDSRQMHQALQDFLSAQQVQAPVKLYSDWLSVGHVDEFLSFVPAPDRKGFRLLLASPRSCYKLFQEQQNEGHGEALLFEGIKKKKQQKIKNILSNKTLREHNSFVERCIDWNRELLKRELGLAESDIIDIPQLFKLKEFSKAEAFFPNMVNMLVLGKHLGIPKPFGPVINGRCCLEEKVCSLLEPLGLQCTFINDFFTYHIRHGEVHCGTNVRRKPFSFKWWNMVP

| SMILES | IC50 (hPAD4 enzyme [1]) | IC50 (hPAD4 enzyme [2]) |
| --- | --- | --- |
| CC(Cc1cnco1)Oc1cc(F)cc2cc(-c3nc4cc5c(nc4n3C)CCN(C[C@H](N)CF)C5=O)n(CC3CC3)c12 (single isomer, unassigned) [Example 64] | 101 to 500 nM |  |
| CC(Cc1cnco1)Oc1cc(F)cc2cc(-c3nc4cc5c(nc4n3C)CCN(C[C@H](N)CF)C5=O)n(CC3CC3)c12 (single isomer, unassigned) [Example 65b] | 101 to 500 nM |  |
| COc1cccc2cc(-c3nc4cc5c(nc4n3C)CCN(C[C@H](N)CF)C5=O)n(Cc3oncc3C)c12 [Example 9, (S)-7-(2-amino-3-fluoropropyl)-2-(7-methoxy-1-((4-methylisoxazol-5-yl)methyl)-1H-indol-2-yl)-3-methyl-3,5,6,7-tetrahydro-8H-imidazo[4,5-b][1,6]naphthyridin-8-one] | 101 to 500 nM |  |
| COc1cccc2cc(-c3nc4cc5c(nc4n3C)CCN(C[C@H](N)CF)C5=O)n(Cc3nc(C)co3)c12 [Example 13, (S)-7-(2-amino-3-fluoropropyl)-2-(7-methoxy-1-((4-methyloxazol-2-yl)methyl)-1H-indol-2-yl)-3-methyl-3,5,6,7-tetrahydro-8H-imidazo[4,5-b][1,6]naphthyridin-8-one] | 501 to 1000 nM |  |
| Cc1cccc2cc(-c3nc4cc5c(nc4n3C)CCN(C[C@H](N)CF)C5=O)n(Cc3ccno3)c12 [Example 17, (S)-7-(2-amino-3-fluoropropyl)-2-(1-(isoxazol-5-ylmethyl)-7-methyl-1H-indol-2-yl)-3-methyl-3,5,6,7-tetrahydro-8H-imidazo[4,5-b][1,6]naphthyridin-8-one] | 501 to 1000 nM |  |
| COc1ccc2cc(-c3nc4cc5c(nc4n3C)CCN(C[C@H](N)CF)C5=O)n(CC3CC3)c2c1 [Example 18, (S)-7-(2-amino-3-fluoropropyl)-2-(1-(cyclopropylmethyl)-6-methoxy-1H-indol-2-yl)-3-methyl-3,5,6,7-tetrahydro-8H-imidazo[4,5-b][1,6]naphthyridin-8-one] | 501 to 1000 nM |  |
| Cn1c(-c2cc3cccc(NC(=O)Cn4ccnc4)c3n2CC2CC2)nc2cc3c(nc21)CCN(C[C@H](N)CF)C3=O [Example 100, (S)—N-(2-(7-(2-amino-3-fluoropropyl)-3-methyl-8-oxo-5,6,7,8-tetrahydro-3H-imidazo[4,5-b][1,6]naphthyridin-2-yl)-1-(cyclopropylmethyl)-1H-indol-7-yl)-2-(1H-imidazol-1-yl)acetamide] |  | 501 to 1000 nM |

Continued, values first:

| IC50 (hPAD4 enzyme [1]) | IC50 (hPAD4 enzyme [2]) | SMILES |
| --- | --- | --- |
| > 1000 nM |  | COc1cccc2cc(-c3nc4cc5c(nc4n3C)CCN(C[C@H](N)CF)C5=O)n(Cc3ncc(C)s3)c12 [Example 10, (S)-7-(2-amino-3-fluoropropyl)-2-(7-methoxy-1-((5-methylthiazol-2-yl)methyl)-1H-indol-2-yl)-3-methyl-3,5,6,7-tetrahydro-8H-imidazo[4,5-b][1,6]naphthyridin-8-one] |
| 501 to 1000 nM |  | Cn1c(-c2cc3cccc(OCC4CC(=O)NC4(C)C)c3n2CC2CC2)nc2cc3c(nc21)CCN(C[C@H](N)CF)C3=O (stereo partly drawn) [Example 35, 7-((S)-2-amino-3-fluoropropyl)-2-(1-(cyclopropylmethyl)-7-((2,2-dimethyl-5-oxopyrrolidin-3-yl)methoxy)-1H-indol-2-yl)-3-methyl-3,5,6,7-tetrahydro-8H-imidazo[4,5-b][1,6]naphthyridin-8-one] |
| > 1000 nM |  | Cn1c(-c2cc3cccc(OC[C@H]4CCC(=O)NC4)c3n2CC2CC2)nc2cc3c(nc21)CCN(C[C@H](N)CF)C3=O [Example 36, 7-((S)-2-amino-3-fluoropropyl)-2-(1-(cyclopropylmethyl)-7-(((S)-6-oxopiperidin-3-yl)methoxy)-1H-indol-2-yl)-3-methyl-3,5,6,7-tetrahydro-8H-imidazo[4,5-b][1,6]naphthyridin-8-one] |
|  | 101 to 500 nM | C[C@H](COc1cccc2cc(-c3nc4cc5c(nc4n3C)CCN(C[C@H](N)CF)C5=O)n(CC3CC3)c12)n1cnc(C#N)c1 [Example 91, 1-((R)-1-((2-(7-((S)-2-amino-3-fluoropropyl)-3-methyl-8-oxo-5,6,7,8-tetrahydro-3H-imidazo[4,5-b][1,6]naphthyridin-2-yl)-1-(cyclopropylmethyl)-1H-indol-7-yl)oxy)propan-2-yl)-1H-imidazole-4-carbonitrile] |
|  | 11 to 100 nM | Cn1c(-c2cc3cccc(OCCn4cnc(Cl)n4)c3n2CC2CC2)nc2cc3c(nc21)CCN(C[C@H](N)CF)C3=O [Example 92, (S)-7-(2-amino-3-fluoropropyl)-2-(7-(2-(3-chloro-1H-1,2,4-triazol-1-yl)ethoxy)-1-(cyclopropylmethyl)-1H-indol-2-yl)-3-methyl-3,5,6,7-tetrahydro-8H-imidazo[4,5-b][1,6]naphthyridin-8-one] |
|  | 11 to 100 nM | Cn1c(-c2cc3cccc(OCCn4ccnc4Cl)c3n2CC2CC2)nc2cc3c(nc21)CCN(C[C@H](N)CF)C3=O [Example 93, (S)-7-(2-amino-3-fluoropropyl)-2-(7-(2-(2-chloro-1H-imidazol-1-yl)ethoxy)-1-(cyclopropylmethyl)-1H-indol-2-yl)-3-methyl-3,5,6,7-tetrahydro-8H-imidazo[4,5-b][1,6]naphthyridin-8-one] |
|  | 101 to 500 nM | C[C@H](COc1cccc2cc(-c3nc4cc5c(nc4n3C)CCN(C[C@H](N)CF)C5=O)n(CC3CC3)c12)n1cncc1C#N [Example 94, 1-((R)-1-((2-(7-((S)-2-amino-3-fluoropropyl)-3-methyl-8-oxo-5,6,7,8-tetrahydro-3H-imidazo[4,5-b][1,6]naphthyridin-2-yl)-1-(cyclopropylmethyl)-1H-indol-7-yl)oxy)propan-2-yl)-1H-imidazole-5-carbonitrile] |
|  | 11 to 100 nM | Cn1c(-c2cc3cccc(/C=C/Cn4cnc(F)c4)c3n2CC2CC2)nc2cc3c(nc21)CCN(C[C@H](N)CF)C3=O [Example 97, (S,E)-7-(2-amino-3-fluoropropyl)-2-(1-(cyclopropylmethyl)-7-(3-(4-fluoro-1H-imidazol-1-yl)prop-1-en-1-yl)-1H-indol-2-yl)-3-methyl-3,5,6,7-tetrahydro-8H-imidazo[4,5-b][1,6]naphthyridin-8-one] |
|  | 101 to 500 nM | Cn1c(-c2cc3cccc(/C=C/Cn4cncc4F)c3n2CC2CC2)nc2cc3c(nc21)CCN(C[C@H](N)CF)C3=O [Example 98, (S,E)-7-(2-amino-3-fluoropropyl)-2-(1-(cyclopropylmethyl)-7-(3-(5-fluoro-1H-imidazol-1-yl)prop-1-en-1-yl)-1H-indol-2-yl)-3-methyl-3,5,6,7-tetrahydro-8H-imidazo[4,5-b][1,6]naphthyridin-8-one] |
|  | 11 to 100 nM | Cn1c(-c2cc3cccc(CCCn4cnc(F)c4)c3n2CC2CC2)nc2cc3c(nc21)CCN(C[C@H](N)CF)C3=O [Example 99, (S)-7-(2-amino-3-fluoropropyl)-2-(1-(cyclopropylmethyl)-7-(3-(4-fluoro-1H-imidazol-1-yl)propyl)-1H-indol-2-yl)-3-methyl-3,5,6,7-tetrahydro-8H-imidazo[4,5-b][1,6]naphthyridin-8-one] |
